For 13 compounds, IC50 results are on record in patent US20110217324A1, “INHIBITORS OF ANTIGEN PRESENTATION BY MHC CLASS II MOLECULES AND METHODS OF USE THEREOF” (priority 2007, published 2011).

Numbered stars: 1 amine (or outer) side, 2 acyl side, 3 side chain; on linkers, the order of the positions; unused ones are H or OH. Square brackets hold non-standard residues; d marks the D form. Peptide text beside a SMILES is read from it. * marks the point of attachment. Phe(3,4-Cl2) = N[C@@H](Cc1ccc(Cl)c(Cl)c1)C(=O)O; X8 = Nc1nc(C[C@H](N[*:1])C(=O)[*:2])c[nH]1; Phe(4-F) = N[C@@H](Cc1ccc(F)cc1)C(=O)O; Gly(cPent) = N[C@H](C(=O)O)C1CCCC1; Igl = N[C@H](C(=O)O)C1Cc2ccccc2C1; Tic = O=C(O)[C@@H]1Cc2ccccc2CN1; Cit = NC(=O)NCCC[C@H](N)C(=O)O; Chg = N[C@H](C(=O)O)C1CCCCC1; X6 = c1ccc2[nH]c(CCN*)cc2c1; Pip = O=C(O)[C@@H]1CCCCN1; Morpholide = C1CN(*)CCO1; βAla = NCCC(=O)O

The assay has as its target T1, MHC DR2 (DRB1*1501/DRA*0101) (Homo sapiens, UniProt P01903+P01911).
T1 construct: endogenous in cells; host or cells: EBV homozygous (B lymphoblastoid) cell lines
Briefly: HLA II Binding Assay (competition with biotinylated reference peptide). Conditions: purified HLA-DR, biotinylated reference compound for DRB1*1501, 37° C. 24 h to 72 h; read-out: Inhibition of peptide binding IC50 (against MHC DR2 (DRB1*1501/DRA*0101)). How it is done: EBV homozygous cell lines are used as sources of human HLA class II molecules. […] The supernatant from lysed cells after centrifugation (100,000 g for 1 h) is applied to Sepharose 4B and protein A-Sepharose 4B columns and then to the specific antibody column. […] Fractions are immediately neutralized to pH 7 with 2 mM Tris-HCl (pH 6.8) and extensively dialyzed against 1 mM n-dodecyl β-D-maltoside, 150 mM NaCl, 10 mM phosphate (pH 7) buffer.
Samples (100 μl per well) are incubated in 96-wells polypropylene plates at 37° C. for 24 h to 72 h. After neutralization with 50 μl of 450 mM Tris HCl pH 7.5, 0.003% thimerosal, 0.3% BSA, 1 mM n-dodecyl β-D-maltoside buffer, samples are applied to 96-well maxisorp ELISA plates previously coated with 10 μg/ml L243 Mab and saturated with 100 mM Tris HCl pH=7.5, 0.3% BSA, and 0.003% thimerosal buffer. Samples are allowed to bind to the antibody-coated plates for 2 h at room temperature. Bound biotinylated compound is detected by incubating streptavidin-alkaline phosphatase conjugate, and after washings, by the addition of 4-methylumbelliferyl phosphate substrate. […] Maximal binding is determined by incubating the biotinylated peptide with the MHC class II molecule in the absence of competitor. Binding specificity is assessed by adding an excess of non-biotinylated peptide.
Take `CC(C)[C@H](NC(=O)CN)C(=O)N[C@H](C(=O)N[C@@H](CCCNC(N)=O)C(=O)N1Cc2ccccc2C[C@H]1C(=O)N[C@@H](Cc1ccccc1)C(N)=O)C1CCCCC1` [(NH2-Gly)V(Chg)(Cit)(Tic)F] (H-GV[Chg][Cit][Tic]F-NH2): the IC50 is 1 to 10 nM.
The value for `CC(=O)N[C@H](C(=O)N[C@H](C(=O)N[C@@H](CCCNC(=N)N)C(=O)N1Cc2ccccc2C[C@H]1C(=O)NCCc1cc2ccccc2[nH]1)C1CCCCC1)C(C)C` [AcV(Chg)R(Tic)(2-ethylaminoindole)] (Ac-V[Chg]R[Tic]-X6) was 100 to 1000 nM; that for `CC(=O)N[C@H](C(=O)N[C@H](C(=O)N[C@@H](CCCNC(=N)N)C(=O)N1Cc2ccccc2C[C@H]1C(=O)N[C@@H](Cc1ccc(Cl)c(Cl)c1)C(N)=O)C1CCCCC1)C(C)C` [AcV(Chg)R(Tic)(3,4-dichloro Phe)] (Ac-V[Chg]R[Tic][Phe(3,4-Cl2)]-NH2) was 1 to 10 nM; that for `CC(=O)N[C@H](C(=O)N[C@H](C(=O)N[C@@H](CCCNC(=N)N)C(=O)N1Cc2ccccc2C[C@H]1C(=O)N[C@@H](Cc1ccc(F)cc1)C(N)=O)C1CCCCC1)C(C)C` [AcV(Chg)R(Tic)(4′-F Phe)] (Ac-V[Chg]R[Tic][Phe(4-F)]-NH2) was 1 to 10 nM.
The value for `CC(C)[C@H](NC(=O)CCN)C(=O)N[C@H](C(=O)N[C@@H](CCCNC(=N)N)C(=O)N1Cc2ccccc2C[C@H]1C(=O)N[C@@H](Cc1ccccc1)C(N)=O)C1CCCCC1` [(NH2-Beta Ala)V(Chg)R(Tic)F] (H-[βAla]V[Chg]R[Tic]F-NH2) was 1 to 10 nM; that for `CC(=O)N[C@H](C(=O)N[C@H](C(=O)N[C@@H](CCCNC(=N)N)C(=O)N1Cc2ccccc2C[C@H]1C(=O)N[C@@H](Cc1ccccc1)C(=O)N1CCOCC1)C1CCCCC1)C(C)C` [AcV(Chg)R(Tic)F-CO(morpholine)] (Ac-V[Chg]R[Tic]F-Morpholide) was 10 to 100 nM.
The value for `CC(=O)N[C@H](C(=O)N[C@@H](CCCNC(=N)N)C(=O)N1CCCC[C@H]1C(=O)N[C@@H](Cc1ccccc1)C(=O)N1CCCC[C@H]1C(N)=O)C1CCCCC1` [Ac(Chg)R(homo Pro)F(homo Pro)] (Ac-[Chg]R[Pip]F[Pip]-NH2) was 100 to 1000 nM; that for `CC(=O)N[C@H](C(=O)N[C@H](C(=O)N[C@@H](Cc1c[nH]c(N)n1)C(=O)N1Cc2ccccc2C[C@H]1C(=O)N[C@@H](Cc1ccccc1)C(N)=O)C1CCCCC1)C(C)C` [AcV(Chg)(2-amino His)(Tic)F] (Ac-V[Chg][X8][Tic]F-NH2) was 10 to 100 nM; that for `CC(C)[C@H](NC(=O)CN)C(=O)N[C@H](C(=O)N[C@@H](CCCNC(=N)N)C(=O)N1Cc2ccccc2C[C@H]1C(=O)N[C@@H](Cc1ccccc1)C(N)=O)C1CCCCC1` [(NH2-Gly)V(Chg)R(Tic)F] (H-GV[Chg]R[Tic]F-NH2) was 1 to 10 nM.
Regarding `CC(=O)N[C@H](C(=O)N[C@H](C(=O)N[C@@H](CCCNC(N)=O)C(=O)N1Cc2ccccc2C[C@H]1C(=O)N[C@@H](Cc1ccccc1)C(N)=O)C1CCCCC1)C(C)C` [AcV(Chg)(Cit)(Tic)F] (Ac-V[Chg][Cit][Tic]F-NH2), the IC50 lay in the range of 1 to 10 nM.
On to `CC(=O)N[C@H](C(=O)N[C@H](C(=O)N[C@@H](CCCNC(=N)N)C(=O)N1Cc2ccccc2C[C@H]1C(=O)N[C@@H](Cc1ccccc1)C(N)=O)C1CCCCC1)[C@@H](C)O` [Ac(Thr)(Chg)R(Tic)F] (Ac-T[Chg]R[Tic]F-NH2), for which the IC50 lay within 10 to 100 nM.
Turning to `CC(=O)N[C@H](C(=O)N[C@@H](CCCNC(=N)N)C(=O)N1Cc2ccccc2C[C@H]1C(=O)N[C@@H](Cc1ccccc1)C(=O)N1CCCC[C@H]1C(=O)O)C1CCCC1` [Ac(Cpg)R(Tic)F(homo Pro)COOH] (Ac-[Gly(cPent)]R[Tic]F[Pip]-OH), the IC50 fell in the range of 10 to 100 nM.
For `CC(=O)N[C@H](C(=O)N[C@H](C(=O)N[C@@H](CCCNC(=N)N)C(=O)N1Cc2ccccc2C[C@H]1C(=O)N[C@@H](Cc1ccccc1)C(=O)N1CCOCC1)C1Cc2ccccc2C1)C(C)C` [AcV(Indgly)R(Tic)F-CO(morpholine)] (Ac-V[Igl]R[Tic]F-Morpholide), the IC50 lay in the range of 10 to 100 nM.
